This passage reports IC50 results from patent US11292802B2, “Substituted tetrahydropyrrolo[1,2-a]pyrazines as alpha v integrin inhibitors” (BRISTOL-MYERS SQUIBB COMPANY, priority 2017, dated 2022).

By IC50 is commonly meant the concentration that inhibits the measured activity by half.

T1 sequence (P06756 31-992 limits assumed): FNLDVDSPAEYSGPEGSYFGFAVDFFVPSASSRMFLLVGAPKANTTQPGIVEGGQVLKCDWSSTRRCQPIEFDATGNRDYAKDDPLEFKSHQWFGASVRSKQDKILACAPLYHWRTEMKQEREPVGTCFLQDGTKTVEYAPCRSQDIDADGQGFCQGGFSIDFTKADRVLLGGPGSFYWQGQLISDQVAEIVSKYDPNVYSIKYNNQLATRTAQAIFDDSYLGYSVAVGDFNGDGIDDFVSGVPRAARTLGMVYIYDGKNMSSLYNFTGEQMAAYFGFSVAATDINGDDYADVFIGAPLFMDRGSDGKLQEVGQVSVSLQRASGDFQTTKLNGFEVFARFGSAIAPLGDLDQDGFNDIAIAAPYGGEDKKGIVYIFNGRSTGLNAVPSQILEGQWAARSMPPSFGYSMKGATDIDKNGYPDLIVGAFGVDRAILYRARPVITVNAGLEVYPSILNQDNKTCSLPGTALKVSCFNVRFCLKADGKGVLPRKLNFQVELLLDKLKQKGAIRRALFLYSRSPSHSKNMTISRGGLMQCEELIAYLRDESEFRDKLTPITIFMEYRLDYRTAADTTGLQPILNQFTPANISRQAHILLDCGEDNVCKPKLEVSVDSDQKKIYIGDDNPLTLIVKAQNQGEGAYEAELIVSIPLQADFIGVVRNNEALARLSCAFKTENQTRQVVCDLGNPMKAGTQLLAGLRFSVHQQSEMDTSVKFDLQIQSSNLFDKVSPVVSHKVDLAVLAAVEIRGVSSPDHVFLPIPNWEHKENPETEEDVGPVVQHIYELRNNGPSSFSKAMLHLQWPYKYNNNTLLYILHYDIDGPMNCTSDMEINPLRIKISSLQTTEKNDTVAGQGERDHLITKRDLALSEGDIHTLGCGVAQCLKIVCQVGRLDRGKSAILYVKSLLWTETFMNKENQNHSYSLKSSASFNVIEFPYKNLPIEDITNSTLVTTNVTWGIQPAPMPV
T1 sequence (P18564 22-707 limits assumed): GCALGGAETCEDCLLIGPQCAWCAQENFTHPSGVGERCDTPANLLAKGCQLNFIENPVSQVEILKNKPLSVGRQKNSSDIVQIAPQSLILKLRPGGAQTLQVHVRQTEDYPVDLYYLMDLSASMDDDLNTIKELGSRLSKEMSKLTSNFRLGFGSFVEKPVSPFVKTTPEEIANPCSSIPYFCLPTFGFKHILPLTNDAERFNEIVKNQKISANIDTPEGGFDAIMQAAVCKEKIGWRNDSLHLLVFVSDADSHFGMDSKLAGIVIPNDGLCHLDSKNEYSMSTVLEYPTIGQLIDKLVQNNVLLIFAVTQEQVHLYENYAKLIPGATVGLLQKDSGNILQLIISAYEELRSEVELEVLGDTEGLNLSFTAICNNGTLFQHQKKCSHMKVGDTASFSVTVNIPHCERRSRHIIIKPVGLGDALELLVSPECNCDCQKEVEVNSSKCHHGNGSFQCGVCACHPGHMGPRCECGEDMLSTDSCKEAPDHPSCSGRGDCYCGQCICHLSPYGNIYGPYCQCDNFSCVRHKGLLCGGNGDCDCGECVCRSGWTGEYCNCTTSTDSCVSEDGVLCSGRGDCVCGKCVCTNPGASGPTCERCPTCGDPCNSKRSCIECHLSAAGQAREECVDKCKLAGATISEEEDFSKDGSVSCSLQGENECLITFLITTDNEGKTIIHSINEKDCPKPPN

This test has as its target T1, human αVβ6 (Homo sapiens, UniProt P06756+P18564).
T1 construct: purchased R & D systems 3817-AV
Kind of test: human αVβ6 HTRF binding assay. Particulars: biotinylated recombinant human αVβ6 integrin 1.25 nM, FITC-conjugated fibronectin 5 nM. As to the method:
All binding assays used the HTRF (homogeneous time resolved fluorescence) technology from Cisbio International, therefore all assays are described as HTRF binding assays. The assay results for the Examples are listed in Table 1, exemplified by human αVβ6 (?). The HTRF binding assays are established for the following integrins: human αVβ6, human αVβ1, human αVβ3, human αVβ5, and human αVβ8. All assays used the following assay buffer: 20 mM Tris, pH 7.4, 1 mM MgCl2, 1 mM MnCl2, 0.01% Tween 20, and 0.01% BSA. Alternatively, a SPA-based assay was used for evaluation of receptor binding.
[…]
A general note: TR-FRET usually uses a lanthanide donor and a delayed reading to cut background.
`O=C(O)C[C@@H](c1cc(Cl)cc(Cl)c1)N1CCn2cc(CCc3ccc4c(n3)NCCC4)cc2C1=O` [Example 6]: the IC50 amounted to 0.98 nM.

For the compound `O=C(O)CC(c1cnc2ccccc2n1)N1CCn2cc(CCc3ccc4c(n3)NCCC4)cc2C1=O` (stereo not shown) [Example 18], the IC50 stood at 140 nM.

As for `COc1ccc([C@H](CC(=O)O)N2CCn3cc(CCCc4ccc5c(n4)NCCC5)cc3C2=O)cn1` [Example 30, (S)-3-(6-Methoxypyridin-3-yl)-3-(1-oxo-7-(3-(5,6,7,8-tetrahydro-1,8-naphthyridin-2-yl)propyl)-3,4-dihydropyrrolo[1,2-a]pyrazin-2(1H)-yl)propanoic acid], the IC50 amounted to 1.1 nM.

For the compound `O=C(O)C[C@@H](c1ccc(OCC2CC2)nc1)N1CCn2cc(CCc3ccc4c(n3)NCCC4)cc2C1=O` [Example 24, (S)-3-(6-(Cyclopropylmethoxy)pyridin-3-yl)-3-(1-oxo-7-(2-(5,6,7,8-tetrahydro-1,8-naphthyridin-2-yl)ethyl)-3,4-dihydropyrrolo[1,2-a]pyrazin-2(1H)-yl)propanoic acid], the IC50 amounted to 1.6 nM.

As for `COc1ccc([C@H](CC(=O)O)N2CCn3cc(C(Cc4ccc5c(n4)NCCC5)Cc4ccc5c(n4)NCCC5)cc3C2=O)cc1F` [Example 10], the IC50 was determined as 1.3 nM.

For `COc1ccc([C@H](CC(=O)O)N2CCn3cc(CCCCc4ccc5c(n4)NCCC5)cc3C2=O)cc1F` [Example 31, (S)-3-(3-Fluoro-4-methoxyphenyl)-3-(1-oxo-7-(4-(5,6,7,8-tetrahydro-1,8-naphthyridin-2-yl)butyl)-3,4-dihydropyrrolo[1,2-a]pyrazin-2(1H)-yl)propanoic acid], the concentration for half-maximal inhibition (IC50) was 12 nM.

On to `COc1ccc([C@H](CC(=O)O)N2CCn3cc(Cc4ccc5c(n4)NCCC5)cc3C2=O)cc1F` [Example 29, (S)-3-(3-Fluoro-4-methoxyphenyl)-3-(1-oxo-7-((5,6,7,8-tetrahydro-1,8-naphthyridin-2-yl)methyl)-3,4-dihydropyrrolo[1,2-a]pyrazin-2(1H)-yl)propanoic acid], for which the IC50 turned out to be 0.73 nM.

For the compound `Cc1cc(C)c(S(=O)(=O)N[C@@H](CN2CCn3cc(CCc4ccc5c(n4)NCCC5)cc3C2=O)C(=O)O)c(C)c1` [Example 8], the IC50 was determined as 25 nM.

With `O=C(O)C[C@@H](c1ccc2c(c1)OCC2)N1CCn2cc(CCc3ccc4c(n3)NCCC4)cc2C1=O` [Example 17], the IC50 was 2.6 nM.

As for `COc1ccc([C@H](CC(=O)O)N2CCn3cc(CCc4ccc5c(n4)NCCC5)cc3C2=O)cn1` [Example 3, (S)-3-(6-Methoxypyridin-3-yl)-3-(1-oxo-7-(2-(5,6,7,8-tetrahydro-1,8-naphthyridin-2-yl)ethyl)-3,4-dihydropyrrolo[1,2-a]pyrazin-2(1H)-yl)propanoic acid], the IC50 was 2.4 nM.

Take `COc1ccc([C@H](CC(=O)O)N2CCn3cc(CCC4CCc5cccnc5N4)cc3C2=O)cn1` (single isomer, unassigned) [Example 12]: the IC50 is 3.2 nM.

Consider `COc1ncc([C@H](CC(=O)O)N2CCn3cc(CCCc4ccc5c(n4)NCCC5)cc3C2=O)cn1` [Example 20], for which the IC50 is 3.4 nM.

For `COc1ccc([C@H](CC(=O)O)N2CCn3c(cc(CCc4ccc5c(n4)NCCC5)c3C)C2=O)cc1F` [Example 7], the IC50 is 69 nM.

On to `COc1ccc([C@H](CC(=O)O)N2CCn3c(cc(CCc4ccc5c(n4)NCCC5)c3I)C2=O)cc1F` [Example 26, (S)-3-(3-Fluoro-4-methoxyphenyl)-3-(6-iodo-1-oxo-7-(2-(5,6,7,8-tetrahydro-1,8-naphthyridin-2-yl)ethyl)-3,4-dihydropyrrolo[1,2-a]pyrazin-2(1H)-yl)propanoic acid], for which the IC50 was 53 nM.

With `O=C(N[C@@H](CN1CCn2cc(CCc3ccc4c(n3)NCCC4)cc2C1=O)C(=O)O)OCc1ccccc1` [Example 25, (S)-2-(((Benzyloxy)carbonyl)amino)-3-(1-oxo-7-(2-(5,6,7,8-tetrahydro-1,8-naphthyridin-2-yl)ethyl)-3,4-dihydropyrrolo[1,2-a]pyrazin-2(1H)-yl)propanoic acid], the IC50 was 4.6 nM.

Turning to `COc1ccc([C@H](CC(=O)O)N2CCn3cc(CCC4CCc5cccnc5N4)cc3C2=O)cc1F` (mixture of isomers) [Example 2, (3S)-3-(3-Fluoro-4-methoxyphenyl)-3-(1-oxo-7-(2-(1,2,3,4-tetrahydro-1,8-naphthyridin-2-yl)ethyl)-3,4-dihydropyrrolo[1,2-a]pyrazin-2(1H)-yl)propanoic acid], the IC50 came to 0.51 nM.

Turning to `COc1ccc([C@H](CC(=O)O)N2CCn3cc(CCC4CCc5cccnc5N4)cc3C2=O)cn1` (mixture of isomers) [Example 9], the IC50 was found to be 0.6 nM.

`Cc1ncc(C(CC(=O)O)N2CCn3cc(CCc4ccc5c(n4)NCCC5)cc3C2=O)cn1` (stereo not shown) [Example 13]: the IC50 stood at 7.2 nM.

For the compound `O=C(O)C[C@@H](c1ccc(O)c(F)c1)N1CCn2cc(CCc3ccc4c(n3)NCCC4)cc2C1=O` [Example 27, (S)-3-(3-Fluoro-4-hydroxyphenyl)-3-(1-oxo-7-(2-(5,6,7,8-tetrahydro-1,8-naphthyridin-2-yl)ethyl)-3,4-dihydropyrrolo[1,2-a]pyrazin-2(1H)-yl)propanoic acid], the IC50 came to 4.8 nM.

With `CCOc1ccc([C@H](CC(=O)O)N2CCn3cc(CCc4ccc5c(n4)NCCC5)cc3C2=O)cn1` [Example 23, (S)-3-(6-Ethoxypyridin-3-yl)-3-(1-oxo-7-(2-(5,6,7,8-tetrahydro-1,8-naphthyridin-2-yl)ethyl)-3,4-dihydropyrrolo[1,2-a]pyrazin-2(1H)-yl)propanoic acid], the IC50 came out at 1.6 nM.

With `COc1ccc([C@H](CC(=O)O)N2CCn3cc(CCc4ccc5c(n4)NCCC5)cc3C2=O)cc1F` [Example 1, (S)-3-(3-Fluoro-4-methoxyphenyl)-3-(1-oxo-7-(2-(5,6,7,8-tetrahydro-1,8-naphthyridin-2-yl)ethyl)-3,4-dihydropyrrolo[1,2-a]pyrazin-2(1H)-yl)propanoic acid], the IC50 came out at 3.2 nM.

For the compound `O=C(O)C[C@@H](c1cnc2ccccc2c1)N1CCn2cc(CCCc3ccc4c(n3)NCCC4)cc2C1=O` [Example 19], the IC50 was found to be 6.5 nM.

In the case of `COc1ccc([C@@H](CC(=O)O)N2CCn3cc(CCc4ccc5c(n4)NCCC5)cc3C2=O)cc1F` [Example 4], the IC50 came out at 80 nM.

`COc1ccc([C@H](CC(=O)O)N2CCn3cc(CCC4CCc5cccnc5N4)cc3C2=O)cn1` (single isomer, unassigned) [Example 11]: the IC50 was 2.3 nM.

For `COc1ccc([C@H](CC(=O)O)N2CCn3cc(-c4ccc5c(n4)NCCC5)cc3C2=O)cc1F` [Example 28, (S)-3-(3-Fluoro-4-methoxyphenyl)-3-(1-oxo-7-(5,6,7,8-tetrahydro-1,8-naphthyridin-2-yl)-3,4-dihydropyrrolo[1,2-a]pyrazin-2(1H)-yl)propanoic acid], the IC50 was 340 nM.

In the case of `O=C(O)C[C@@H](c1cnc2ccccc2c1)N1CCn2cc(CCc3ccc4c(n3)NCCC4)cc2C1=O` [Example 16], the IC50 was 1.8 nM.

“(S)-3-(3-Fluoro-4-methoxyphenyl)-3-(1-oxo-7-(4-(5,6,7,8-tetrahydro-1,8-naphthyridin-2-yl)butyl)-3,4-dihydropyrrolo[1,2-a]pyrazin-2(1H)-yl)propanoic acid, TFA [Example 32]”: the IC50 came to 410 nM.

For `CC(C)COc1ccc([C@H](CC(=O)O)N2CCn3cc(CCc4ccc5c(n4)NCCC5)cc3C2=O)cn1` [Example 22, (S)-3-(6-Isobutoxypyridin-3-yl)-3-(1-oxo-7-(2-(5,6,7,8-tetrahydro-1,8-naphthyridin-2-yl)ethyl)-3,4-dihydropyrrolo[1,2-a]pyrazin-2(1H)-yl)propanoic acid], the IC50 was found to be 1.6 nM.

Regarding `O=C(O)CC(c1cncnc1)N1CCn2cc(CCc3ccc4c(n3)NCCC4)cc2C1=O` (stereo not shown) [Example 15], the IC50 stood at 23 nM.

Turning to `CC(C)(C)c1cc(Br)cc([C@H](CC(=O)O)N2CCn3cc(CCc4ccc5c(n4)NCCC5)cc3C2=O)c1` [Example 5], the IC50 worked out at 0.59 nM.

Turning to `Cc1ncc([C@H](CC(=O)O)N2CCn3cc(CCCc4ccc5c(n4)NCCC5)cc3C2=O)cn1` [Example 21], the IC50 was found to be 5.6 nM.
